# Source: US4590193A, “3-(2-(4-phenylpiperazinylethyl)anilino)-isobenzofuranones, their method of preparation and their use as antihypertensive and antiallergic drugs” (Societe Cortial, S.A., priority 1982, dated 1986)
# Key:
# [1] = tested on: contractions induced by serotonin on an isolated guinea pig ileum; test: In vitro antiserotonin activity: inhibition of serotonin-induced contractions of isolated guinea pig ileum; assay type: cell-based; conditions: Cavia porcellus, serotonin 5.10^-7 g/ml
# [2] = tested on: motility; test: Effect on motility in mice (actimeter), sedative; assay type: in vivo; conditions: Mus musculus, oral, read-out: ED50 as a sedative (motility)
# Method: (§1) When administered orally to spontaneously hypertensive rats at a rate of 50 mg/kg every 12 hours for five days, COR 34 41 causes a drop in the AP. The AP becomes stable at the end of the treatment, at a value of about 18 mm Hg below its initial value. The effect on motility when giving the present substances orally to mice, was tested by using an actimeter.
# [3] = tested on: cutaneous reactions induced by histamine; test: Cutaneous reactions induced by histamine; assay type: in vivo, rats; conditions: oral, rat
# Method: (§2) The products of this invention were administered orally to rats in the model of the cutaneous reactions. These reactions were induced by intradermal administration of histamine, serotonin, or the 48/80 compound. The activity of these products is expressed as the percentage of reduction in the amount of blue dye having diffused at the injection point, and the obtained values for ED50 expressed in mg/kg are given in Table VI.
# [4] = tested on: cutaneous reactions induced by the 48/80 compound; test: Cutaneous reactions induced by 48/80 compound; assay type: in vivo, rats; conditions: oral, rat
# Method: as §2
# [5] = biological target: T1, contractions induced by histamine on a guinea pig ileum (Cavia porcellus, UniProt P31389); test: In vitro antihistamine activity: inhibition of histamine-induced contractions of guinea pig ileum; assay type: cell-based; conditions: for Kb: competitive antagonism of histamine, read-out: pA2 (converted); for IC50: histamine 10^-8 g/l
# T1 construct: on a guinea pig ileum; from tissue; host or cells: isolated guinea pig ileum
# Method: The antagonist is administered at the same time as the agonist or before. In the latter case, the time of contact between the antagonist and the organ isolated before the introduction of the agonist is shown in Table III.
# [6] = Intraperitoneal toxicity (mortality, LD50); conditions: mouse, in vivo, ip; for mortality: read-out: percentage of mortality; for LD50: Bliss method
# Method: (§3) The mortality induced by these substances was determined by using Swiss mice which were free of specific pathogenic organisms. The animals were kept in an air conditioned room for 24 to 48 hours prior to the beginning of the experiments. The substances were solubilized in Tween and administered either intragastrically or intraperitoneally.
# [7] = tested on: cutaneous reactions induced by serotonin; test: Cutaneous reactions induced by serotonin; assay type: in vivo, rats; conditions: oral, rat
# Method: as §2
# [8] = tested on: bronchospasm induced by a 0.3% histamine aerosol; test: In vivo antihistamine activity: bronchospasm induced by histamine aerosol in awake guinea pig; conditions: 10 mg/kg oral in Tween
# Method: The in vivo antihistamine activity is determined in the awake guinea pig by testing the bronchospasm induced by a 0.3% histamine aerosol. The antihistaminic activity of the present products is tested upon their oral administration in Tween.
# [9] = tested on: cutaneous passive anaphylaxis; test: Antiallergic activity: cutaneous passive anaphylaxis; assay type: in vivo, Sprague Dawley rats; conditions: po; per os, rat, reduction of Evans blue diffused
# Method: The antiallergic activity has been determined in Sprague Dawley rats by the test for cutaneous passive anaphylaxis. Anaphylaxis is induced by the intradermal administration of a serum rich in IgE, followed 24 hours later by the intravenous injection of a solution containing ovalbumin and Evans blue. The activity of the products to be tested, administered per os, is estimated as the percentage of reduction in the amount of Evans blue having diffused at the injection point. Table VI provides the ED50 expressed in mg/kg of certain products of this invention.
# [10] = Oral toxicity (mortality), intragastric administration; conditions: mouse, in vivo, read-out: percentage of mortality
# Method: as §3
# [11] = tested on: spontaneously hypertensive awake rat; test: Antihypertensive activity in spontaneously hypertensive awake rat, oral; assay type: in vivo
# Method: In the spontaneously hypertensive awake rat the compound COR 34 41 causes a drop in AP of 18.8% at 25 mg/kg per os, and it causes a drop in AP of 19.3% at 50 mg/kg. The AP returns to normal at the end of an hour, at a dosage of 25 mg/kg, and at the end of 5 hours with a dosage of 50 mg/kg.
# The compound COR 34 42 causes a AP drop of 15.6% at a dose of 50 mg/kg per os. The AP returns to normal at the end of 5 hours.
# [12] = tested on: spontaneously hypertensive rats; test: Antihypertensive activity in spontaneously hypertensive rats, repeated oral administration; assay type: in vivo, rat; conditions: 50 mg/kg orally every 12 hours for five days
# Method: as §1
# [13] = tested on: Swiss mice; conditions: 14 days of observation; 20 wt. % "Tween" solution; range of lethal doses 946-1459; cited from earlier work
# [14] = no time of contact printed (antagonist given at the same time as agonist)
# T1 sequence (P31389 whole entry): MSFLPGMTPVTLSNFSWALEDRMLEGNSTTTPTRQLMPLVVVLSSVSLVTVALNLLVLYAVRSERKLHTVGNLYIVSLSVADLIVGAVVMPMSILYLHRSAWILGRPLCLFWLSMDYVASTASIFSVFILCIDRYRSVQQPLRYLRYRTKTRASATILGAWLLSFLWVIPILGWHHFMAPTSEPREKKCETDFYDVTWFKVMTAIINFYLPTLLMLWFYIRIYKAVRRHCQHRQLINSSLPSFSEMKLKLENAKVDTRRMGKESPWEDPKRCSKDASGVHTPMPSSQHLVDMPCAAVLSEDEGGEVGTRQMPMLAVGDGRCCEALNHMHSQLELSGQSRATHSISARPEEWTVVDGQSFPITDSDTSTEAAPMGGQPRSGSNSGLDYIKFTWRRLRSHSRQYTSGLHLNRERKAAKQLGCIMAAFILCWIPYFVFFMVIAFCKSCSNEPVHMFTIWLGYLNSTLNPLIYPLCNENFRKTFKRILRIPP
Compound,ED50 [2] [mg/kg],ED50 [3] [mg/kg],ED50 [4] [mg/kg],Kb [5] [nM],mortality ([6]; 500 mg/kg) [%],ED50 [7] [mg/kg],% of animals protected at 1 h [8] [%],% of animals protected at 6 h [8] [%],ED50 [9] [mg/kg],mortality ([10]; 1000 mg/kg) [%],mortality ([10]; 2000 mg/kg) [%],mortality ([6]; 1000 mg/kg) [%],further results
"O=C1OC(Nc2ccccc2CCN2CCN(c3ccccc3)CC2)c2ccccc21 (stereo not drawn) [COR 34 30, 3-(2-(4-phenylpiperazinylethyl)anilino)-isobenzofuranone]",~50,12.1,11.2,20.4,0,13.2,60,40,3.8,0,0,–,"IC50 ([1]; time of contact 5 mm): 9330 nM; IC50 [5, 14]: 1040 nM; mortality ([6]; 100 mg/kg): 0%; mortality ([6]; 200 mg/kg): 10%; mortality ([6]; 300 mg/kg): 0%; mortality ([10]; 3000 mg/kg): 10%"
"O=C1OC(Nc2ccccc2CCN2CCN(c3ccc(F)cc3)CC2)c2ccccc21 (stereo not drawn) [COR 34 37, 3-(2-(4-fluorophenylpiperazinylethyl)anilino)isobenzofuranone]",–,9.3,9.4,13.8,20,7.9,70,70,6.4,10,50,60,IC50 ([1]; time of contact 5 mm): 22700 nM; IC50 ([5]; time of contact 3 mm): 15.5 nM; mortality ([10]; 750 mg/kg): 0%
COc1ccccc1N1CCN(CCc2ccccc2NC2OC(=O)c3ccccc32)CC1 (stereo not drawn) [COR 34 41],–,7.9,10.9,9.33,25,14,90,60,4.1,10,10,70,IC50 ([1]; time of contact 15 mm): 12600 nM; IC50 ([5]; time of contact 10 mm): 31.1 nM; mortality ([6]; 400 mg/kg): 0%; mortality ([6]; 800 mg/kg): 35%; mortality ([6]; 900 mg/kg): 50%; LD50 [6]: 873 mg/kg; AP returns to normal at the end of ([11]; 25 mg/kg per os): an hour; drop in AP ([11]; 25 mg/kg per os): 18.8%; AP returns to normal at the end of ([11]; 50 mg/kg per os): 5 h; drop in AP ([11]; 50 mg/kg per os): 19.3%; mortality ([10]; 750 mg/kg): 0%; AP below its initial value at the end of the treatment [12]: about 18 mm Hg
"COc1ccc2c(c1OC)C(=O)OC2Nc1ccccc1CCN1CCN(c2ccc(Cl)cc2)CC1 (stereo not drawn) [COR 34 42, 3-(2-(4-p-chlorophenylpiperazinylethyl)-aniline)-6,7-dimethoxyisobenzofuranone]",10,–,–,–,–,–,–,–,14.8,0,0,–,IC50 ([5]; time of contact 5 mm): 33 nM; AP returns to normal at the end of ([11]; 50 mg/kg per os): 5 h; drop in AP ([11]; 50 mg/kg per os): 15.6%
"COc1ccc2c(c1OC)C(=O)OC2Nc1ccccc1CCN1CCN(c2ccc(F)cc2)CC1 (stereo not drawn) [COR 34 43, 6,7-dimethoxy-3-(2-(4-p-fluorophenylpiperazinylethyl)-anilino)isobenzofuranone]",–,9.1,11.1,10.7,0,17.1,90,50,6.6,0,0,0,"IC50 ([1]; time of contact 3 mm): 20500 nM; IC50 [5, 14]: 3530 nM; mortality ([6]; 800 mg/kg): 0%"
"COc1ccc2c(c1OC)C(=O)OC2Nc1ccccc1CCN1CCN(c2ccccc2)CC1 (stereo not drawn) [COR 34 47, 6,7-dimethoxy-3-(2-(4-phenylpiperazinylethyl)anilino)isobenzofuranone]",–,–,–,–,0,–,20,0,–,0,0,0,IC50 ([1]; time of contact 3 mm): 19700 nM; IC50 ([5]; time of contact 3 mm): 29 nM
COc1ccc2c(c1OC)C(=O)OC2Nc1ccccc1CCN1CCN(c2ccccc2C)CC1 (stereo not drawn) [COR 34 48],9,–,–,–,0,–,40,10,–,0,0,0,IC50 ([1]; time of contact 5 mm): 6460 nM; IC50 ([5]; time of contact 5 mm): 55 nM
"Cc1ccccc1N1CCN(CCc2ccccc2NC2OC(=O)c3ccccc32)CC1 (stereo not drawn) [COR 34 49, 3-(2-(4-(2-methylphenyl)piperazinylethyl)-aniline)isobenzofuranone]",18,–,–,–,0,–,30,20,–,0,0,20,IC50 ([5]; time of contact 10 mm): 80 nM
"COc1ccc(N2CCN(CCc3ccccc3NC3OC(=O)c4ccccc43)CC2)cc1 (stereo not drawn) [COR 34 53, 3-(2-(4-methoxyphenylpiperazinylethyl)anilino)isobenzofuranone]",–,–,–,–,60,–,–,–,–,0,20,100,IC50 ([5]; time of contact 5 mm): ~1500 nM; LD50 [6]: 500 mg/kg
"CC(CN1c2ccccc2Sc2ccccc21)N(C)C (stereo not drawn) [Promethazine, reference compound]",–,–,–,–,–,–,–,–,–,–,–,–,IC50 ([1]; time of contact 3 mm): 444 nM
"Nc1ccccc1CCN1CCN(c2ccccc2)CC1 [product of Example 1, 2-(4-phenylpiperazinylethyl)aniline]",–,–,–,–,–,–,–,–,–,–,–,–,LD50 [13]: 1175 mg/kg
